Results from patent US20130165641A1, “6,11-BRIDGED BIARYL MACROLIDES” (Enanta Pharmaceuticals, Inc., priority 2007, published 2013).
≈ marks a conversion by molar mass, not a printed value.

What was measured:
H. influenzae = assay: MIC by micro-dilution method, H. influenzae isolates; assay type: cell-based, Haemophilus influenzae
Method: (§1) Susceptibility tests can be used to quantitatively measure the in vitro activity of an antimicrobial agent against a given bacterial isolate. Compounds are tested for in vitro antibacterial activity by a micro-dilution method. Minimal Inhibitory Concentration (MIC) is determined in 96 well microtiter plates utilizing the appropriate broth medium for the observed bacterial isolates. […] The diluted compounds (2 μl/well) are then transferred into sterile, uninoculated medium (0.2 mL) by use of a 96 fixed tip-pipetting station. The inoculum for each bacterial strain is standardized to approximately 5×10^5 CFU/mL by optical comparison to a 0.5 McFarland turbidity standard. The plates are inoculated with 10 μl/well of adjusted bacterial inoculum. The 96 well plates are covered and incubated at 35+/−2° C. for 24 hours in ambient air environment. Following incubation, plate wells are visually examined by Optical Density measurement for the presence of growth (turbidity). The lowest concentration of an antimicrobial agent at which no visible growth occurs is defined as the MIC.
(§2) All in vitro testing follows the guidelines described in the Approved Standards M7-A7 protocol, published by the Clinical Laboratory Standards Institute (CLSI).

MRSA = assay: MIC by micro-dilution method, MRSA isolates; assay type: cell-based, Staphylococcus aureus; settings: compounds of Formula XVI; for MIC MRSA 7662: MRSA isolate 7662; for MIC MRSA 33591: MRSA isolate 33591
Method: as §1, §2

Compound `CCC1OC(=O)C(C)C(=O)C(C)C(OC2OC(C)CC(N(C)C)C2O)C2(C)CC(C)C(=O)C(C)C(OCC(=NOCc3ccc(-c4coc(N)n4)nc3)CO2)C1(C)O` (centres unmarked) [Example 60] has an MIC (H. influenzae; H. influenzae 33929) of 2 µg/mL (≈ 2.45 µM) and an MIC (H. influenzae; H. influenzae 49247) of 2 µg/mL (≈ 2.45 µM).

With `CCC1OC(=O)C(C)(F)C(=O)C(C)C(OC2OC(C)CC(N(C)C)C2O)C2(C)CC(C)C(=O)C(C)C(OCC(=NOCc3cnc(-c4nc(N)ns4)cn3)CO2)C1(C)O` (centres unmarked) [Example 64] the MIC (H. influenzae; H. influenzae 33929) was 2 µg/mL (≈ 2.35 µM) and the MIC (H. influenzae; H. influenzae 49247) was 1 µg/mL (≈ 1.17 µM).

For `CCC1OC(=O)C(C)(F)C(=O)C(C)C(OC2OC(C)CC(N(C)C)C2O)C2(C)CC(C)C(=O)C(C)C(OCC(=NOCc3ccc(-c4nc(N)cs4)cn3)CO2)C1(C)O` (centres unmarked) [Example 33], the MIC (H. influenzae; H. influenzae 33929) was 4 µg/mL (≈ 4.71 µM) and the MIC (H. influenzae; H. influenzae 49247) was 2 µg/mL (≈ 2.35 µM).

In the case of `CCC1OC(=O)C(C)C(=O)C(C)C(OC2OC(C)CC(N(C)C)C2O)C2(C)CC(C)C(=NC(C)=O)C(C)C(OCC(=NOCc3ccc(-c4nsc(N)n4)cc3)CO2)C1(C)O` (centres unmarked) [Example 48], the MIC (H. influenzae; H. influenzae 33929) is reported as 2 µg/mL (≈ 2.29 µM).

In the case of `CCC1OC(=O)C(C)C(=O)C(C)C(OC2OC(C)CC(N(C)C)C2O)C2(C)CC(C)C(=O)C(C)C(OCC(=NOCc3coc(-c4cccc(N)n4)n3)CO2)C1(C)O` (centres unmarked) [Example 39], the MIC (H. influenzae; H. influenzae 33929) is reported as 1 µg/mL (≈ 1.23 µM) and the MIC (H. influenzae; H. influenzae 49247) is reported as 1 µg/mL (≈ 1.23 µM).

`CCC1OC(=O)C(C)C(=O)C(C)C(OC2OC(C)CC(N(C)C)C2O)C2(C)CC(C)C(=NC(C)=O)C(C)C(OCC(=NOCc3coc(-c4cccc(N)n4)n3)CO2)C1(C)O` (centres unmarked) [Example 40] showed an MIC (H. influenzae; H. influenzae 33929) of 2 µg/mL (≈ 2.33 µM) and an MIC (H. influenzae; H. influenzae 49247) of 2 µg/mL (≈ 2.33 µM).

In the case of `CCC1OC(=O)C(C)C(=O)C(C)C(OC2OC(C)CC(N(C)C)C2O)C2(C)CC(C)C(=O)C(C)C(OCC(=NOCc3ccc(-c4nc(N)no4)cn3)CO2)C1(C)O` (centres unmarked) [Example 45], the MIC (H. influenzae; H. influenzae 33929) is reported as 2 µg/mL (≈ 2.45 µM) and the MIC (H. influenzae; H. influenzae 49247) is reported as 1 µg/mL (≈ 1.22 µM).

With `CCC1OC(=O)C(C)C(=O)C(C)C(OC2OC(C)CC(N(C)C)C2O)C2(C)CC(C)C(=O)C(C)C(OCC(=NOCc3ncc(-c4cccc(N)n4)s3)CO2)C1(C)O` (centres unmarked) [Example 63] the MIC (H. influenzae; H. influenzae 33929) was 2 µg/mL (≈ 2.4 µM) and the MIC (H. influenzae; H. influenzae 49247) was 1 µg/mL (≈ 1.2 µM).

Compound `CCC1OC(=O)C(C)C(=O)C(C)C(OC2OC(C)CC(N(C)C)C2O)C2(C)CC(C)C(=O)C(C)C(OCC(=NOCc3ccc(-c4csc(N)n4)cn3)CO2)C1(C)O` (centres unmarked) [Example 41] has an MIC (H. influenzae; H. influenzae 33929) of 2 µg/mL (≈ 2.4 µM) and an MIC (H. influenzae; H. influenzae 49247) of 1 µg/mL (≈ 1.2 µM).

`CCC1OC(=O)C(C)C(=O)C(C)C(OC2OC(C)CC(N(C)C)C2O)C2(C)CC(C)C(=NC(C)=O)C(C)C(OCC(=NOCc3ccc(-n4nnnc4N)cc3)CO2)C1(C)O` (centres unmarked) [Example 47] gave an MIC (H. influenzae; H. influenzae 33929) of 2 µg/mL (≈ 2.33 µM).

With `CCC1OC(=O)C(C)C(=O)C(C)C(OC2OC(C)CC(N(C)C)C2O)C2(C)CC(C)C(=O)C(C)C(OCC(=NOCc3ccc(-n4nnnc4N)cc3)CO2)C1(C)O` (centres unmarked) [Example 46] the MIC (H. influenzae; H. influenzae 33929) was 2 µg/mL (≈ 2.45 µM) and the MIC (H. influenzae; H. influenzae 49247) was 2 µg/mL (≈ 2.45 µM).

Compound `CCC1OC(=O)C(C)C(=O)C(C)C(OC2OC(C)CC(N(C)C)C2O)C2(C)CC(C)C(=O)C(C)C(OCC(=NOCc3ccc(-c4coc(N)n4)cn3)CO2)C1(C)O` (centres unmarked) [Example 55] has an MIC (H. influenzae; H. influenzae 33929) of 2 µg/mL (≈ 2.45 µM) and an MIC (H. influenzae; H. influenzae 49247) of 1 µg/mL (≈ 1.23 µM).

Work on `CCC1OC(=O)C(C)C(=O)C(C)C(OC2OC(C)CC(N(C)C)C2O)C2(C)CC(C)C(=O)C(C)C(OCC(=NOCc3csc(-c4cccc(N)n4)n3)CO2)C1(C)O` (centres unmarked) [Example 71] yielded an MIC (H. influenzae; H. influenzae 33929) of 2 µg/mL (≈ 2.4 µM).

Work on `CCC1OC(=O)C(C)C(=O)C(C)C(OC2OC(C)CC(N(C)C)C2O)C2(C)CC(C)C(=O)C(C)C(OCC(=NOCc3nc(-c4cccc(N)n4)no3)CO2)C1(C)O` (centres unmarked) [Example 53] yielded an MIC (H. influenzae; H. influenzae 33929) of 1 µg/mL (≈ 1.22 µM) and an MIC (H. influenzae; H. influenzae 49247) of 1 µg/mL (≈ 1.22 µM).

Work on `CCC(=O)N=C1C(C)CC2(C)OCC(=NOCc3cnc(-c4cccc(N)n4)o3)COC(C1C)C(C)(O)C(CC)OC(=O)C(C)(F)C(=O)C(C)C2OC1OC(C)CC(N(C)C)C1O` (centres unmarked) [Example 65] yielded an MIC (H. influenzae; H. influenzae 33929) of 4 µg/mL (≈ 4.5 µM) and an MIC (H. influenzae; H. influenzae 49247) of 1 µg/mL (≈ 1.12 µM).

With `CCC1OC(=O)C(C)C(=O)C(C)C(OC2OC(C)CC(N(C)C)C2O)C2(C)CC(C)C(=O)C(C)C(OCC(=NOCc3ccc(-c4nc(N)no4)cc3)CO2)C1(C)O` (centres unmarked) [Example 42] the MIC (H. influenzae; H. influenzae 33929) was 2 µg/mL (≈ 2.45 µM) and the MIC (H. influenzae; H. influenzae 49247) was 1 µg/mL (≈ 1.23 µM).

With `CCC1OC(=O)C(C)C(=O)C(C)C(OC2OC(C)CC(N(C)C)C2O)C2(C)CC(C)C(=O)C(C)C(OCC(=NOCc3ccc(-c4nc(N)ns4)cc3)CO2)C1(C)O` (centres unmarked) [Example 44] the MIC (H. influenzae; H. influenzae 33929) was 2 µg/mL (≈ 2.4 µM) and the MIC (H. influenzae; H. influenzae 49247) was 1 µg/mL (≈ 1.2 µM).

With `CCC(=O)N=C1C(C)CC2(C)OCC(=NOCc3ccc(-n4ccc(N)n4)nc3)COC(C1C)C(C)(O)C(CC)OC(=O)C(C)(F)C(=O)C(C)C2OC1OC(C)CC(N(C)C)C1O` (centres unmarked) [Example 79] the “MIC MRSA 7662” value (MRSA) was 2 µg/mL (≈ 2.25 µM) and the “MIC MRSA 33591” value (MRSA) was 4 µg/mL (≈ 4.5 µM).

In the case of `CCC(=O)N=C1[C@H](C)C[C@@]2(C)OC/C(=N/OCc3ccc(-c4nccc(N)n4)cn3)CO[C@H]([C@H]1C)[C@](C)(O)[C@@H](CC)OC(=O)[C@@](C)(F)C(=O)[C@H](C)[C@H]2O[C@@H]1O[C@H](C)C[C@H](N(C)C)[C@H]1O` [Example 113], the “MIC MRSA 7662” value (MRSA) is reported as 4 µg/mL (≈ 4.44 µM) and the “MIC MRSA 33591” value (MRSA) is reported as 8 µg/mL (≈ 8.89 µM).
